pEC50: −log10 of the molar value. Where two headings read alike, the source gives them in different places. Bridge positions count the residues as written; N and C are the ends. Square brackets hold non-standard residues; d marks the D form. Peptide text beside a SMILES is read from it. hArg = N=C(N)NCCCC[C@H](N)C(=O)O; Mpa = O=C(O)CCS
How the values were obtained:
[1] = tested on: platelet surface activated integrin αIIbβ3; assay: cells; format: cell-based, human
Description: (§1) FIGS. 2A-2D depict a comparison of MC and FFC platforms for measurement of agonist-stimulated integrin αIIbβ3 activation (PAC1) and P-selectin expression (CD62P) on platelets. Citrate-anticoagulated blood from 3 separate healthy donors was treated with vehicle or the indicated concentrations of ADP (A, B) or thrombin receptor activating peptide (TRAP) (C, D); for 30 minutes in the presence of PAC1-FITC or […] antibodies to assess integrin αIIbβ3 activation (A, C) and CD62P-PE or CD62P-172Yb antibodies to assess a-granule secretion (B, D). Samples were fixed in 1% formaldehyde and analyzed by MC or FFC. Data were analyzed using a non-linear fit of log agonist vs. response; variable slope in GraphPad Prism 5. Results are expressed as a percentage of mean metal intensity (MMI; MC readout) or the mean fluorescence intensity (MFI; FFC readout) achieved with 200 μM adenosine diphosphate (ADP) or TRAP, respectively (means±SEM; n=2/3, with n=2 accounting for the linear region of the TRAP dose-response [concentrations 1.5-3.5 μM] and n=3 accounting for all other concentrations [0-1 μM & 5-200 μM]).
(§2) Blood was collected by venipuncture with a 21-gauge butterfly needle into evacuated tubes containing 3.2% sodium citrate. Blood was drawn from healthy volunteers or GT patients who were free from antiplatelet agents and non-steroidal anti-inflammatory drugs for 10 days prior to the donation. The blood draws were performed by the same phlebotomist. Complete blood cell counts were performed in a Sysmex XN-1000 Hematology Analyzer.
(§3) A panel of metal-labeled antibodies directed against platelet antigens of interest was assembled (FIG. 1A). Antibody clones were well-characterized, widely used and purchased from reputable vendors. Platelets in whole blood were reacted with the panel (containing anti-CD9-171Yb, anti-CD29-176Yb, anti-CD31-145Nd, anti-CD36-150Nd, anti-CD42a-155Gd, anti-CD42b-163Dy, anti-CD41-149Sm, anti-CD62P-172Yb, anti-CD61-165Ho, anti-CD63-161Dy, anti-CD107a-166Er, anti-CD154-154Sm, anti-GPVI-152Sm and anti-PAC1-159Tb; see FIG. 1A, Materials, and Table 1 for antibody information) in the presence of vehicle (HT-BSA), TRAP or ADP at the indicated concentrations for 30 minutes (FIG. 1B). Samples were fixed in 1% formaldehyde/HEPES-saline solution containing 125 nM Iridium 191/193 Cell-ID DNA Intercalator for 30 minutes. […] Samples were passed through a 35 μm cell-strainer (Corning Inc, Corning, N.Y.) and analyzed on a Helios Mass Cytometer (Fluidigm Corporation, San Francisco, Calif.; FIG. 1C). […]
(§4) Data were analyzed using GraphPad version 5.0 software (GraphPad Software, La Jolla, Calif.) and are presented as mean±standard error of the mean. […]

[2] = tested on: platelet surface P-selectin (CD62P); assay: cells; format: cell-based, human
Description: as §1, §2, §3, §4

[3] = tested on: platelet surface activated integrin αIIbβ3; assay: cells; format: cell-based, human; remark: listed apart in the source
Description: as §1, §2
(§5) Whole blood FFC analysis of platelet activation was performed as previously described. Three color analysis was performed using two cocktails of fluorescently labeled antibodies: PE-conjugated anti-CD62P, FITC-conjugated PAC1 (directed against the high affinity conformation of integrin αIIbβ3) and PE-Cy5-conjugated anti-CD42b; or PE-conjugated anti-CD41a, FITC-conjugated anti-CD61 and PE-Cy5-conjugated anti-CD42b (see Table 2 for antibody information). Citrate-anticoagulated whole blood was treated with vehicle, TRAP or ADP at the indicated concentrations in the presence of the appropriate fluorescently labeled antibody cocktail for 30 minutes at ambient temperature. Samples were fixed in 1% formaldehyde/HEPES-saline buffer for 30 minutes prior to analysis in a FACSCalibur flow cytometer (BD Biosciences, San Jose, Calif.). Platelets were gated based on forward light scatter, side light scatter and CD42b expression (see FIG. 8 for FFC platelet gating strategy). A total of 15,000 platelet events per sample were collected. […]
as §4

[4] = tested on: platelet surface P-selectin (CD62P); assay: cells; format: cell-based, human; remark: listed apart in the source
Description: as §1, §2, §5, §4

[5] = tested on: platelets in whole blood; assay: MC panel of 12 additional platelet surface markers during TRAP or ADP stimulation; format: cell-based, human; details: 30 minutes; for Platelet surface CD41, CD61, CD63, CD9, CD107a and CD154 / Platelet surface CD42a and CD42b: agonist 0-200 μM; for Surface plasma membrane levels of CD31, CD36, CD29 and GPVI: varying agonist concentrations
Description: Citrate-anticoagulated blood from the same 3 separate healthy donors in FIGS. 2A-2D was simultaneously treated with vehicle or the indicated concentrations of TRAP (A) or ADP (B) for 30 minutes in the presence of a custom platelet-specific, metal-tagged antibody panel. This panel contained antibodies directed against CD41, CD61, CD63, CD9, CD107a, CD154, CD42a, CD42b, CD31, CD36, CD29 and GPVI. Samples were fixed in 1% formaldehyde and analyzed by MC. Data were analyzed using a non-linear fit of log agonist vs. response; variable slope or linear regression in GraphPad Prism 5. Results are expressed as a percentage of the mean metal intensity (MMI) achieved with 200 μM ADP or TRAP (means±SEM; n=2/3, with n=2 accounting for the linear region of the TRAP dose-response [concentrations 1.5-3.5 μM)] and n=3 accounting for all other concentrations [0-1 μM and 5-200 μM]). Statistical analysis: 1-way ANOVA was used in conjunction with a Dunnett multiple comparison test (all results compared to vehicle control) to indicate statistical significance; *P<0.05, **P<0.01 and ***P<0.001. Abbreviations: ADP, adenosine diphosphate; FFC, fluorescence flow cytometry; MC, mass cytometry; TRAP, thrombin receptor activating peptide.
A panel of metal-labeled antibodies directed against platelet antigens of interest was assembled (FIG. 1A). Antibody clones were well-characterized, widely used and purchased from reputable vendors. Platelets in whole blood were reacted with the panel (containing anti-CD9-171Yb, anti-CD29-176Yb, anti-CD31-145Nd, anti-CD36-150Nd, anti-CD42a-155Gd, anti-CD42b-163Dy, anti-CD41-149Sm, anti-CD62P-172Yb, anti-CD61-165Ho, anti-CD63-161Dy, anti-CD107a-166Er, anti-CD154-154Sm, anti-GPVI-152Sm and anti-PAC1-159Tb; see FIG. 1A, Materials, and Table 1 for antibody information) in the presence of vehicle (HT-BSA), TRAP or ADP at the indicated concentrations for 30 minutes (FIG. 1B). Samples were fixed in 1% formaldehyde/HEPES-saline solution containing 125 nM Iridium 191/193 Cell-ID DNA Intercalator for 30 minutes. Cells were washed two times in MilliQ deionized H2O to remove salts and resuspended in 0.5 mL of MilliQ deionized H20 containing EQ Four Element Calibration Beads (1:10 v/v [33,000 beads/mL]). Samples were passed through a 35 μm cell-strainer (Corning Inc, Corning, N.Y.) and analyzed on a Helios Mass Cytometer (Fluidigm Corporation, San Francisco, Calif.; FIG. 1C). Cell events were acquired at 300-500 events per second and >30,000 events were acquired in total. Platelets were gated based on DNA content (DNA-low) and CD41/CD61 expression (see FIG. 8 for the MC platelet gating strategy). High-dimensional analyses of platelet subpopulations were carried out using the visual stochastic neighbor embedding (viSNE) cluster analysis function in CYTOBANK™ software (www.cytobank.org). Experiments were carried out by the same scientist and all reagents were from the same lot.

[6] = target: T1, activated integrin αIIbβ3 (Homo sapiens, UniProt P05106+P08514); assay: Specificity of in-house metal-tagged PAC1 for integrin αIIbβ3 (agonist stimulation, eptifibatide blockade) by MC; format: cell-based; details: whole blood; for Platelet surface activated αIIbβ3 expression compared with unstimulated controls: 200 μM agonist, PAC1-159Tb
T1 construct: endogenous in cells; host or cells: platelets in citrate-anticoagulated human whole blood
Source text: FIG. 6. depicts measuring the specificity of in-house metal-tagged PAC1 for integrin αIIbβ3. […] Samples were fixed in 1% formaldehyde and analyzed by MC. […] Statistical analysis: 1-way ANOVA was used in conjunction with a Bonferroni post-test (with all results compared to the MMI achieved with agonist stimulation) to indicate statistical significance; **P<0.01 and ***P<0.001.
as §3
To compare the MC and FFC platforms for platelet analysis a novel metal-tagged MC antibody panel was designed to target well-established surface markers on platelets (FIG. 1A, Table 1) including platelet surface P-selectin (monitored with anti-CD62P-172Yb) and platelet surface activated integrin αIIbβ3 (monitored with the activation-dependent monoclonal antibody PAC1, labeled in-house with 159Tb). The specificity of PAC1-159Tb for activated αIIbβ3 was assessed by its dependence on platelet activation for binding and by its blockade by the αIIbβ3 inhibitor, eptifibatide (FIG. 6A-6B).

T1 sequence (P08514 32-887 limits assumed): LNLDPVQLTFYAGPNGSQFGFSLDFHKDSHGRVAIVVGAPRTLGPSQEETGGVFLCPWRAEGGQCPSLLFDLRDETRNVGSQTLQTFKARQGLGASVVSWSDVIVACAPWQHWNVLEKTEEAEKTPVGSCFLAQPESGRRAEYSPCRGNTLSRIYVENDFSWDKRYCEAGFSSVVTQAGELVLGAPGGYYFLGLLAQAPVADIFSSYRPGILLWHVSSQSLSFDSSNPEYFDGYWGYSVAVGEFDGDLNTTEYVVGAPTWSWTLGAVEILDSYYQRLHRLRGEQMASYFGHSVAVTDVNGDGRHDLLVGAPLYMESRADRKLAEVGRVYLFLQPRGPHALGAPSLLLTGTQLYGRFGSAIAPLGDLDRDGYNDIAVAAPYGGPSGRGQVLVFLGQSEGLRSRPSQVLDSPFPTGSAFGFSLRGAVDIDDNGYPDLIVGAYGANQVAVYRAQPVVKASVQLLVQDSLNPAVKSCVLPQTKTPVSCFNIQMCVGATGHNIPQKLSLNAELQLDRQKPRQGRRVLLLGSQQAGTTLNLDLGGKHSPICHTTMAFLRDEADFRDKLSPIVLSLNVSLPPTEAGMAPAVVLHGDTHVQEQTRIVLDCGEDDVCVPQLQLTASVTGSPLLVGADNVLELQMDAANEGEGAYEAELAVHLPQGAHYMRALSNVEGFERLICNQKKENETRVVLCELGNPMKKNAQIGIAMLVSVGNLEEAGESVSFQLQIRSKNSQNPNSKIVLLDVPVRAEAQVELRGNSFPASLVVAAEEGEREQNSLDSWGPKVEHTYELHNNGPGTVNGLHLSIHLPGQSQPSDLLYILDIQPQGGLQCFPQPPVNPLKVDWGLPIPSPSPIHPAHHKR
T1 sequence (P08514 891-1039 limits assumed): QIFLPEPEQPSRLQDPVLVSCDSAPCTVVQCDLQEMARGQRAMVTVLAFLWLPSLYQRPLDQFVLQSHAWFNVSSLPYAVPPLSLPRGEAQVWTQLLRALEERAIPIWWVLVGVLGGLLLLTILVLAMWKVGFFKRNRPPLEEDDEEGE
T1 sequence (P05106 27-788): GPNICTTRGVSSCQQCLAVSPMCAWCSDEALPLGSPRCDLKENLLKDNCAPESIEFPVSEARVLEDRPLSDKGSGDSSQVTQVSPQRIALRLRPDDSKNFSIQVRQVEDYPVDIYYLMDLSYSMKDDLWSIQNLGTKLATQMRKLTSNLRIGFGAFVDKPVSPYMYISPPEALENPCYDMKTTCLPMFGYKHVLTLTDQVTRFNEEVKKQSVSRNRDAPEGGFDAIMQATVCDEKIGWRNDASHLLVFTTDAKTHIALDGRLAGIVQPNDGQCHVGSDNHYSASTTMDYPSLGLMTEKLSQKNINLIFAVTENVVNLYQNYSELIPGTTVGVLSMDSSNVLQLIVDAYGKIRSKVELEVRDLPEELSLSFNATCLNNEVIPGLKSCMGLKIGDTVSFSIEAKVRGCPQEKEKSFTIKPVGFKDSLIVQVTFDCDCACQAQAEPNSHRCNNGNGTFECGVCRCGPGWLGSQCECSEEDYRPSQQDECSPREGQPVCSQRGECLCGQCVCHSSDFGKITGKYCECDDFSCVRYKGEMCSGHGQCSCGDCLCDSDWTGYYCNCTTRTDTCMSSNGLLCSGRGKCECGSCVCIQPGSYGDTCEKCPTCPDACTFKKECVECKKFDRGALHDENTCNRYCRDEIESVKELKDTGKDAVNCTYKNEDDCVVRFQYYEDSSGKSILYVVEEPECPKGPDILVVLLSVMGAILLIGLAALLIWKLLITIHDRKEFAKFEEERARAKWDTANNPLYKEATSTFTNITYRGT

Structure (SMILES)	pEC50 ([1]; Homo sapiens, Platelet, 0.5 h, MC, anti-PAC1-159Tb, citrate whole blood of healthy donors, 30 minutes, read-out: EC50 for agonist-induced platelet surface activated αIIbβ3)	pEC50 ([2]; Homo sapiens, Platelet, 0.5 h, MC, CD62P-172Yb, citrate whole blood of healthy donors, 30 minutes, read-out: EC50 for agonist-induced platelet surface P-selectin expression)	pEC50 ([3]; Homo sapiens, Platelet, 0.5 h, FFC, anti-PAC1-FITC, citrate whole blood of healthy donors, 30 minutes, read-out: EC50 for agonist-induced platelet surface activated αIIbβ3)	pEC50 ([4]; Homo sapiens, Platelet, 0.5 h, FFC, CD62P-PE, citrate whole blood of healthy donors, 30 minutes, read-out: EC50 for agonist-induced platelet surface P-selectin expression)	Platelet surface CD41, CD61, CD63, CD9, CD107a and CD154 [5]	Platelet surface CD42a and CD42b [5]	Surface plasma membrane levels of CD31, CD36, CD29 and GPVI [5]	Platelet surface activated αIIbβ3 expression compared with unstimulated controls [6]	pEC50 [1]	pEC50 [2]	pEC50 [3]	pEC50 [4]	Blockade of anti-PAC1-159Tb binding to activated integrin αIIbβ3 ([6]; eptifibatide 2.5 μg/mL, following TRAP/ADP (200 μM) stimulation)
Nc1ncnc2c1ncn2[C@@H]1O[C@H](COP(=O)(O)OP(=O)(O)O)[C@@H](O)[C@H]1O [ADP, Adenosine 5′-diphosphate]	6.10	5.89	6.22	5.92	elevated in a dose-dependent manner	stayed constant	remained constant	significantly elevated	–	–	–	–	–
CC(C)C[C@H](NC(=O)[C@H](CC(C)C)NC(=O)[C@H](Cc1ccccc1)NC(=O)[C@@H](N)CO)C(=O)N[C@@H](CCCNC(=N)N)C(=O)N[C@@H](CC(N)=O)C(N)=O [TRAP, SFLLRN-NH2]	–	–	–	–	elevated in a dose-dependent manner	trend to be dose-dependently decreased	remained constant	significantly elevated	5.43	5.47	5.68	5.64	–
N=C(N)NCCCC[C@@H]1NC(=O)CCSSC[C@@H](C(N)=O)NC(=O)[C@@H]2CCCN2C(=O)[C@H](Cc2c[nH]c3ccccc23)NC(=O)[C@H](CC(=O)O)NC(=O)CNC1=O [eptifibatide] ([Mpa][hArg]GDWPC-NH2; disulfide 1-7)	–	–	–	–	–	–	–	–	–	–	–	–	completely blocked

— patent US20220128545A1, “METHODS AND COMPOSITIONS FOR ANALYZING PLATELETS BY MASS CYTOMETRY” (Children's Medical Center Corporation, priority 2018, published 2022)
